{"source": "paper PMC12810351", "about": "“Structure-effect relationship of phenolic compounds on α-amylase inhibition studied by isothermal titration calorimetry” (Current Research in Food Science, 2025)", "key": {"[1]": {"biological_target": "T1, porcine pancreatic α-amylase (Sus scrofa, UniProt P00690)", "T1 sequence (P00690 16-511)": "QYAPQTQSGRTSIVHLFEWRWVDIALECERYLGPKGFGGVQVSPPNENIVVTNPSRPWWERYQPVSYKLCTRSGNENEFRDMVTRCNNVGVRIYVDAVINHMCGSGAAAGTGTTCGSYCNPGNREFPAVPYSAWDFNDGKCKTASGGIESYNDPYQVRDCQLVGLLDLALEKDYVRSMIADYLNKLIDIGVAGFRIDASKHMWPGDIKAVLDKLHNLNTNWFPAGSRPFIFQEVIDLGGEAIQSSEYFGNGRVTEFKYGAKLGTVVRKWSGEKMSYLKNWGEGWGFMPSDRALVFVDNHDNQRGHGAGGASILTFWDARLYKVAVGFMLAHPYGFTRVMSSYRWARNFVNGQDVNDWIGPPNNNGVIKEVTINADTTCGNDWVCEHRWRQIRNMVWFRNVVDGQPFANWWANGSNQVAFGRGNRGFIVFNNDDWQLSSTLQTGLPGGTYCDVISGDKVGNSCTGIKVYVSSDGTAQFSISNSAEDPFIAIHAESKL", "assay": "starch hydrolysis by α-amylase monitored by isothermal titration calorimetry (ITC)", "format": "biochemical", "conditions": "for remaining activity at 25 µM: 25 μM EGCG, relative to control", "procedure": "The amylase stock solution was diluted each day and stored during the day at 4 °C.\nThe experiments were conducted using an Affinity ITC LV instrument with a cell volume of 182 μL (TA Instruments, Eschborn, Germany). […] These controls were conducted to determine the optimal injection volume to achieve maximal velocity (vmax) (S11). […] Enzyme kinetic constants were determined at 310 K.\nThe heat released during starch conversion was continuously monitored, with calculations performed using Microsoft Excel® software. The enzymatic rate (v) is directly proportional to the measured thermal power (eq (1)).(1) v=dP/dt=1/Vcell·ΔRHapp·dQ/dt\nThe reaction enthalpy ( ΔRHapp ) is determined by integrating the heat peak over its entire duration, divided by the number of substrate molecules converted:(2) ΔRHapp=∫t=0∞dQ/dtdt/nS\n(dQ/dt)max [%], ΔRHapp [%] und vmax [%] are calculated in relation to daily control.\nThe substrate concentration at time t ([S]t) is calculated according to eq (3).(3) [S]t=∫t∞dQ/dtdt/∫0∞dQ/dtdt·[S]t=0\nTherefore, the thermogram contains all the required data for calculating inhibition constants. The maximal conversion rate vmax and the Michaelis-Menten constant Km are determined from control experiments conducted in the absence of an inhibitor. In the presence of an inhibitor [I] the apparent values of vmaxapp and Kmapp are obtained. Competitive inhibition (Kic, eq (5)) is due to the formation of an enzyme-inhibitor complex (EI), whereas uncompetitive inhibition (Kiu, eq (5)) occurs when an inhibitor binds to a […]:(5) Kic=vmaxapp/Kmapp·[I]/(vmax/Km)−(vmaxapp/Kmapp)Kiu=vmaxapp·[I]/vmax−vmaxapp\nThe IC50 value, a key pharmacological metric, is used to compare the potency of inhibitors. […] The conversion rate (v0) was calculated from the thermogram according to eq (1), and subsequently plotted against the […]"}, "α-amylase [2]": {"biological_target": "α-amylase", "design": "method as in Kaeswurm et al. (2019)", "conditions": "substrate GalG2CNP, CNP UV/Vis, ref Kaeswurm et al. (2019), cited from earlier work"}, "α-amylase [3]": {"biological_target": "α-amylase", "design": "method as in Nyambe-Silavwe et al. (2015)", "conditions": "substrate amylose, amylopectin, DNS UV/Vis; ref Nyambe-Silavwe et al. (2015); cited from earlier work"}}, "note": "Like-named read-outs stand apart in the source and are kept apart here."}
{"smiles": "O=C(O[C@@H]1Cc2c(O)cc(O)cc2O[C@@H]1c1cc(O)c(O)c(O)c1)c1cc(O)c(O)c(O)c1", "note": "[EGCG, epigallocatechin gallate]", "values": [{"measurement": "remaining activity at 25 µM", "setting": "[1]; read-out: (dQ/dt)max [%]", "value": "38 ± 4", "unit": "%"}, {"measurement": "remaining activity at 25 µM", "setting": "[1]; read-out: vmax [%]", "value": "49 ± 2", "unit": "%"}, {"measurement": "reversibility of inhibition (from ΔRHapp)", "setting": "[1]; 100 μM polyphenol (EGCG 25 μM)", "value": "irreversible aggregation"}, {"measurement": "α (Kic/Kiu)", "setting": "[1]; calculated based on the mass concentration", "value": "0.73 ± 0.01"}, {"measurement": "Ki", "setting": "[1]; calculated based on the mass concentration, read-out: Kic [g/L] (converted)", "value": 21.8, "unit": "µM"}, {"measurement": "Ki", "setting": "[1]; calculated based on the mass concentration, read-out: Kiu [g/L] (converted)", "value": 21.8, "unit": "µM"}, {"measurement": "Ki", "setting": "[1]; competitive inhibition constant, substrate starch, ITC, 100 μM polyphenol (EGCG 25 μM), read-out: Kic", "value": "19 ± 2", "unit": "µM"}, {"measurement": "inhibition mechanism suggested by Kic/Kiu ratios", "setting": "[1]; polyphenol standards", "value": "preferentially bind to the enzyme"}, {"measurement": "inhibition type", "setting": "[1]; substrate starch, ITC", "value": "mixed"}, {"measurement": "IC50", "setting": "[1]; substrate starch, ITC, calculated by eq (6), substrate concentration of 1 M (IC50 equivalent to Kiu), read-out: IC50*", "value": "25 ± 2", "unit": "µM"}, {"measurement": "Ki", "setting": "[1]; uncompetitive inhibition constant, substrate starch, ITC, 100 μM polyphenol (EGCG 25 μM), read-out: Kiu", "value": "26 ± 2", "unit": "µM"}, {"measurement": "IC50", "setting": "α-amylase [2]", "value": 58, "unit": "µM"}, {"measurement": "Ki", "setting": "α-amylase [2]; read-out: Kic", "value": 124, "unit": "µM"}, {"measurement": "Ki", "setting": "α-amylase [2]; read-out: Kiu", "value": 58, "unit": "µM"}, {"measurement": "IC50", "setting": "α-amylase [3]", "value": "5.3 to 60", "unit": "µM"}]}
